Assay results published in publication PMC9088798, “An Approach to Derive Functional Peptide Inhibitors of Transcription Factor Activity” (JACS Au, 2022).

What was measured:
cJun = target: T1, cJun (Homo sapiens, UniProt P05412); assay: CD dimer exchange, competition for cJun; type: binding; settings: A-FosW added to preformed HingeW/cJun heterodimer; total peptide 10 μM
T1 construct: The human cJun bZIP domain spans from Arg252 to Leu308; His-SUMO (N, cleaved yes); AS cap (two residues Ala-Ser) (N); GAP cap (three residues Gly-Ala-Pro) (C); made in house; host or cells: E. coli (pET21-His-SUMO plasmid)
T1 sequence (P05412 252-308): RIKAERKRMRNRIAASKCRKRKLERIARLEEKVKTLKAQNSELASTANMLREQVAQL
Method: Figure 5 TBS winner peptide HingeW binds cJun preferentially over A-FosW. CD spectra (20 °C) show the binding of cJun to either (A) HingeW or (B) A-FosW. […] However, the effect is larger for HingeW, indicating a greater increase in peptide helicity. Similarly, the thermal denaturation of cJun bound to either (C) HingeW or (D) A-FosW is right-shifted from the average of the component peptide denaturation profiles. […]
Direct competition between HingeW and A-FosW for cJun binding was observed using CD dimer exchange experiments in which a solution containing one antagonist/cJun mixture was combined with the other antagonist to observe potential changes in α-helicity, as an indicator of a change in cJun dimerization partner. In this case, when HingeW was mixed with the preformed A-FosW/cJun heterodimer, a 17% increase in helicity was observed, as measured at 222 nm, relative to the average of the component signals (Figure 5E). […]
(§1) increased to the optimum 4 µM in subsequent passages. […] This allows the occurrence of library members to be monitored as winner sequences are selected for. […]

[1] = system: cJun bZIP / TRE sites in TRE-mDHFR gene; assay: TBS liquid culture growth competition HingeW vs A-FosW; type: cell-based, human cJun, expressed in E. coli; settings: equal numbers of cells with A-FosW or HingeW, selective M9 media, after three passages, DNA sequencing
Method: During the TBS library screening process, E. coli were transformed with the pooled DNA plasmid library such that each cell expressed a given member. Cells were plated onto M9 selective media and incubated until colonies expressing TBS active library members had formed. These colonies were pooled, and repeated liquid culture passages were undertaken under selective conditions to compete for library members against each other, enriching for the most TBS active sequences. At each stage of the assay, DNA sequencing was used to monitor the presence of TBS active sequences in the culture and inform on which residues were being selected at each position until one discrete DNA sequence was detected in the culture, referred to as HingeW (Figure 4). The residues selected in the winning HingeW peptide were universally found to be either acidic (D/E) or hydrophobic (V). Six of nine residues selected deviated from the parental A-FosW sequence with both V (E-to-V at e4 and c4, Q-to-V at f4) and E (L-to-E at a4, Q-to-E at e5, A-to-E at f5) newly selected in three positions. […]
as §1

dimer exchange on mixing with preformed heterodimer (cJun): no dimer exchange had occurred
Sequence: LEQRAEELARENEELEKEAEELEQELDELQAEIEQLEERNYALRKEIEDLQKQLEKL [A-FosW, N-terminal AS and C-terminal GAP caps, 6xHis-tagged]
outcome of direct competition in liquid culture [1]: outcompeted
